Assay results: patent publication US11883391B2, “Compositions and methods for treating inflammatory bowel disease using CCR9 inhibitor and anti-IL-23 blocking antibodies” (ChemoCentryx, Inc., priority 2020, dated 2024)

Tests used:
FVBMDR1a(−/−) mice = experiment: 21 Day Piroxicam-Accelerated MDR1a−/− Model Of Colitis: colon weight-to-length ratio; format: in vivo; settings: combined therapy with anti-IL-23; only the combined therapy significantly improved the W:L ratio
From the text: Mice of the FVB strain lacking a functional MDR1 gene (also known as ABCB1, P-gp or CD243) develop a spontaneous infammatory bowel disease. This disease can be accelerated by adding the drug piroxicam to their food. FVB mice bearing a functional MDR1 gene are resistant to this disease.
Piroxicam is included in the mouse food for ten days, and the health of the mouse is monitored for a total of 21 days both during and after the piroxicam feeding. Symptoms monitored during this time include severity of diarrhea and changes in body weight.
The colon inflammation manifests itself as a thickening of the colon wall and shortening of the colon itself. The severity of the disease can thus be assessed via the ratio of the colon's weight to its length.
The mice used were female 6 week old FVBMDR1a(+/+) and FVBMDR1a(−/−). Mice were normalized for body weight (BW) upon reaching 7 weeks of age, at which time their diet was switched to powdered chow containing piroxicam for a total of 10 days. BW and diarrhea score was monitored for 21 days (including the 10 days of piroxicam feeding). Blood was taken for trough compound levels on day 3 and at takedown. Rat IgG levels (anti-IL23 or isotype-matched control) were quantitated by ELISA on terminal blood draw. At takedown, colons were photographed and weight/length ratio calculated. […]

[1] = Trough plasma concentration of compound on day 3 (LC-MS) in the piroxicam-accelerated colitis study; format: in vivo, mice; settings: trough after the 3rd day of dosing, Compound 1 90 mg/kg SC BID, Compound 2 30 mg/kg SC QD, FIG. 1
From the text: The mice used were female 6 week old FVBMDR1a(+/+) and FVBMDR1a(−/−). Mice were normalized for body weight (BW) upon reaching 7 weeks of age, at which time their diet was switched to powdered chow containing piroxicam for a total of 10 days. BW and diarrhea score was monitored for 21 days (including the 10 days of piroxicam feeding). Blood was taken for trough compound levels on day 3 and at takedown. Rat IgG levels (anti-IL23 or isotype-matched control) were quantitated by ELISA on terminal blood draw. At takedown, colons were photographed and weight/length ratio calculated. Two colons from each group were formaldehyde fixed for future pathology assessment and disease scoring. Remaining colons from each group were dissociated for flow cytometry analysis of infiltrating immune cells.
Compound 1 was dosed at 90 mg/kg in 10% Cremophor-EL, SC, BID, and Compound 2 was dosed at 30 mg/kg in 1% HPMC, SC, QD. Vehicle 1 was 10% Cremophor-EL and was administered SC, BID. Vehicle 2 was 1% HPMC administered SC, QD. Anti-mouse IL-23 Clone G23-8 (Rat IgG1) was dosed at 300 μg/mouse, QD/QOD; Isotype-matched control Clone HRPN (Rat IgG1) was dosed at 300 μg/mouse, QD/QOD.
Blood was taken at trough from all Compound 1- and Compound 2-dosed mice, and plasma analyzed by Liquid Chromatography-Mass Spectroscopy to determine the concentration. Trough blood was taken after the 3rd day of dosing (FIG. 1).

Row | SMILES | synergy with anti-IL-23 to improve colon inflammation (W:L ratio) (FVBMDR1a(−/−) mice) | Trough plasma concentration vs minimal concentration established for 98% receptor coverage [1]
1 | CC(C)(C)c1ccc(S(=O)(=O)Nc2ccc(Cl)cc2C(=O)c2cc[n+]([O-])cc2)cc1 [Compound 1] | synergized | met or exceeded the minimal concentration established for 98% receptor coverage
2 | Cc1cc(NS(=O)(=O)c2ccc(C(C)(C)C)c(F)c2)n(-c2cccc3nc(N)ccc23)n1 [Compound 2] | synergized | met or exceeded the minimal concentration established for 98% receptor coverage
